US5565425A, “Viral infection and proliferation inhibitors” (Snow Brand Milk Products Co., Ltd, priority 1993, dated 1996)
Bridge positions count the residues as written; N and C are the ends. Peptide text beside a SMILES is read from it.

What was measured:
HIV (HTLV-IIIB) = test: Inhibitory activity against HIV infection and proliferation in MT-4 cells (indirect fluorescence antibody method); assay type: cell-based, human immunodeficiency virus (HIV); details: three days, positive control 26.0%
Method: (Method) Cultured supernatant of MOLT-4/HTLV-IIIB cells, a HTLV-IIIB persistent infected strain of HIV, was used as a viral solution. The supernatant was kept at -80° C. Human T cell line MT-4 was used for the test. MT-4 was subcultured in RPMI 1640 medium containing 10% fetal calf serum (FCS). Sample, LF derived peptide, was dissolved in RPMI 1640 medium and one ml of the diluted solution at various concentrations was added to the cells. The inoculated MT-4 test sample was incubated for 60 minutes and infected with HIV at a concentration of moi […]=0.01 and one ml of the cell solution adjusted at a cell density of 3×10^5 cells/ml was added. The cells were cultured for three days : and HIV infected cells were determined with an indirect fluorescence antibody method.
HIV infected cells were determined by the indirect fluorescence antibody method using HIV infected patient serum as a primary antibody. […] HIV infected MT-4 cells cultured without addition of the sample was used as a positive control and cells without addition of viral solution was cultured to make a negative control group.

[1] = system: influenza virus A/PR/8/34; details: 100 μl of one mg/ml solution in allantoic cavity three hours before virus; average of five eggs
[2] = system: Human CMV (Tanaka strain); test: Inhibitory activity against human CMV infection and proliferation in HELF cells (fluorescence staining); assay type: cell-based, Human cytomegalo virus; details: 24 hrs., concentration not given
Method: (Method) LF derived peptide was dissolved in 2% serum added MEM medium to give five mg/ml solution, filtered and sterilized to make a stock solution. The stock solution was diluted with 2% serum added MEM medium on use. Samples containing human embryo lung fibroblast cells (HELF cells) were suspended in 2% serum added MEM medium and incubated for 10 minutes. The cells were collected by centrifugation, washed twice with 2% serum added MEM medium and suspended in 2% serum added MEM medium. Human cytomegalo virus [Human CMV (Tanaka strain)] was added, incubated for 24 hrs., fluorescence stained with human CMV positive serum and the adsorption rate of human CMV to the cells was determined.
The results are judged from the numbers of fluorescent stained cells per one cover slip.

[3] = system: mouse cytomegalo virus (mouse CMV); test: In vivo inhibitory activity against mouse CMV infection (survival of mice); details: after 10 days
Method: (Method) Male Balbc/AJcl mice, 4-week-old (10 in one group) were used. The sample was dissolved in phosphate buffer saline solution (PBS) and intraperitoneally administered to mice.

Row | Compound | ratio of stained (HIV infected) cells (HIV (HTLV-IIIB); sample 63 μg/ml) | ratio of stained (HIV infected) cells (HIV (HTLV-IIIB); sample 125 μg/ml) | ratio of stained (HIV infected) cells (HIV (HTLV-IIIB); sample 250 μg/ml) | ratio of stained (HIV infected) cells (HIV (HTLV-IIIB); sample 500 μg/ml) | ratio of stained (HIV infected) cells (HIV (HTLV-IIIB); sample 1,000 μg/ml) | Inhibitory rate of infection and proliferation of influenza virus [1] | Inhibitory rate of human CMV infection [2] | Survival rate ([3]; 0.02 g/kg of body weight i.p. 24 hrs. before mouse CMV) | Survival rate ([3]; 0.05 g/kg of body weight i.p. 24 hrs. before mouse CMV) | Survival rate ([3]; 0.10 g/kg of body weight i.p. 24 hrs. before mouse CMV) | Survival rate ([3]; 0.50 g/kg of body weight i.p. 24 hrs. before mouse CMV)
1 | CC[C@H](C)[C@H](NC(=O)[C@H](CO)NC(=O)[C@@H]1CCCN1C(=O)[C@H](C)NC(=O)CNC(=O)[C@H](CC(C)C)NC(=O)[C@H](CCCCN)NC(=O)[C@H](CCCCN)NC(=O)[C@H](CCSC)NC(=O)[C@H](CCCNC(=N)N)NC(=O)[C@H](Cc1c[nH]c2ccccc12)NC(=O)[C@H](CCC(N)=O)NC(=O)[C@H](Cc1c[nH]c2ccccc12)NC(=O)[C@H](CCCNC(=N)N)NC(=O)[C@H](CCCNC(=N)N)NC(=O)[C@H](CS)NC(=O)[C@H](CCCCN)NC(=O)[C@@H](N)Cc1ccccc1)C(=O)N[C@H](C(=O)N[C@@H](CS)C(=O)N[C@H](C(=O)N[C@@H](CCCNC(=N)N)C(=O)N[C@@H](CCCNC(=N)N)C(=O)N[C@@H](C)C(=O)N[C@@H](Cc1ccccc1)C(=O)O)C(C)C)[C@@H](C)O [[19 CysSH, 36 CysSH] Bovine LF (17-41)] | 19% | 8.3% | 6.4% | 2.9% | 1.2% | 92.0% | 100.0% |  |  |  | 
2 | CSCC[C@@H]1NC(=O)[C@H](CC(N)=O)NC(=O)[C@H](CCCNC(=N)N)NC(=O)[C@H](CCC(N)=O)NC(=O)[C@H](Cc2c[nH]c3ccccc23)NC(=O)[C@H](CCC(N)=O)NC(=O)[C@H](Cc2ccccc2)NC(=O)[C@@H](NC(C)=O)CSSC[C@@H](C(N)=O)NC(=O)[C@H](CO)NC(=O)[C@H](C(C)C)NC(=O)[C@@H]2CCCN2C(=O)[C@@H]2CCCN2C(=O)CNC(=O)[C@H](CCCNC(=N)N)NC(=O)[C@H](C(C)C)NC(=O)[C@H](CCCCN)NC(=O)[C@H](CCCNC(=N)N)NC1=O [Ac-human LF (20-37)-NH2, N-acetyl-human LF (20-37)-amide] (Ac-CFQWQRNMRKVRGPPVSC-NH2; disulfide 1-18) | 18% | 9.8% | 7.7% | 4.5% | 3.9% | 93.7% | 96.1% |  |  |  | 
3 | CC[C@H](C)[C@@H]1NC(=O)[C@H](CO)NC(=O)[C@@H]2CCCN2C(=O)[C@H](C)NC(=O)CNC(=O)[C@H](CC(C)C)NC(=O)[C@H](CCCCN)NC(=O)[C@H](CCCCN)NC(=O)[C@H](CCSC)NC(=O)[C@H](CCCNC(=N)N)NC(=O)[C@H](Cc2c[nH]c3ccccc23)NC(=O)[C@H](CCC(N)=O)NC(=O)[C@H](Cc2c[nH]c3ccccc23)NC(=O)[C@H](CCCNC(=N)N)NC(=O)[C@H](CCCNC(=N)N)NC(=O)[C@@H](NC(=O)[C@H](CCCCN)NC(=O)[C@@H](N)Cc2ccccc2)CSSC[C@@H](C(=O)N[C@H](C(=O)N[C@@H](CCCNC(=N)N)C(=O)N[C@@H](CCCNC(=N)N)C(=O)N[C@@H](C)C(=O)N[C@@H](Cc2ccccc2)C(=O)O)C(C)C)NC(=O)[C@H]([C@@H](C)O)NC1=O [Bovine LF (17-41)] | 17% | 7.9% | 5.9% | 2.7% | 1.0% | 93.7% | 95.7% | 30% | 60% | 100% | 100%
4 | CC[C@H](C)[C@H](NC(=O)[C@H](CS)NC(=O)[C@H](CO)NC(=O)[C@@H](NC(=O)[C@@H]1CCCN1C(=O)[C@@H]1CCCN1C(=O)CNC(=O)[C@H](CCCNC(=N)N)NC(=O)[C@@H](NC(=O)[C@H](CCCCN)NC(=O)[C@H](CCCNC(=N)N)NC(=O)[C@H](CCSC)NC(=O)[C@H](CC(N)=O)NC(=O)[C@H](CCCNC(=N)N)NC(=O)[C@H](CCC(N)=O)NC(=O)[C@H](Cc1c[nH]c2ccccc12)NC(=O)[C@H](CCC(N)=O)NC(=O)[C@H](Cc1ccccc1)NC(=O)[C@H](CS)NC(=O)[C@H](CCCCN)NC(=O)[C@@H](N)[C@@H](C)O)C(C)C)C(C)C)C(=O)N[C@@H](CCCCN)C(=O)N[C@@H](CCCNC(=N)N)C(=O)N[C@@H](CC(=O)O)C(=O)N[C@@H](CO)C(=O)O [[20CysSH, 37CysSH] Human LF (18-42)] (H-TKCFQWQRNMRKVRGPPVSCIKRDS-OH) | 17% | 8.5% | 6.2% | 3.1% | 1.4% | 96.0% | 100.0% |  |  |  | 
5 | Bovine LF: bovine lactoferrin, an iron-binding protein secreted in milk (CRRWQWRMKKLGAPSITC) | 18% | 8.0% | 6.2% | 4.8% | 3.6% | 87.5% | 95.7% |  |  |  | 
6 | CC[C@H](C)[C@@H]1NC(=O)[C@H](CO)NC(=O)[C@@H]2CCCN2C(=O)[C@H](C)NC(=O)CNC(=O)[C@H](CC(C)C)NC(=O)[C@H](CCCCN)NC(=O)[C@H](CCCCN)NC(=O)[C@H](CCSC)NC(=O)[C@H](CCCNC(=N)N)NC(=O)[C@H](Cc2c[nH]c3ccccc23)NC(=O)[C@H](CCC(N)=O)NC(=O)[C@H](Cc2c[nH]c3ccccc23)NC(=O)[C@H](CCCNC(=N)N)NC(=O)[C@H](CCCNC(=N)N)NC(=O)[C@@H](NC(C)=O)CSSC[C@@H](C(N)=O)NC(=O)[C@H]([C@@H](C)O)NC1=O [Ac-bovine LF (19-36)-NH2, N-acetyl-bovine LF (19-36)-amide] (Ac-CRRWQWRMKKLGAPSITC-NH2; disulfide 1-18) | 17% | 8.8% | 6.1% | 5.0% | 3.6% | 87.5% | 96.5% |  |  |  | 
